Each compound was assayed against T1, PTP-1B (Homo sapiens, UniProt P18031) (assay: pNPP tyrosine phosphatase inhibition assay, PTP-1B). Details: pNPP assay, PTP-1B; read-out: Activity Class (IC50 ranges).
T1 construct: PTP-1B (purified, 1 mg/mL) as a 1:250 dilution
T1 sequence (P18031 1-321 limits assumed): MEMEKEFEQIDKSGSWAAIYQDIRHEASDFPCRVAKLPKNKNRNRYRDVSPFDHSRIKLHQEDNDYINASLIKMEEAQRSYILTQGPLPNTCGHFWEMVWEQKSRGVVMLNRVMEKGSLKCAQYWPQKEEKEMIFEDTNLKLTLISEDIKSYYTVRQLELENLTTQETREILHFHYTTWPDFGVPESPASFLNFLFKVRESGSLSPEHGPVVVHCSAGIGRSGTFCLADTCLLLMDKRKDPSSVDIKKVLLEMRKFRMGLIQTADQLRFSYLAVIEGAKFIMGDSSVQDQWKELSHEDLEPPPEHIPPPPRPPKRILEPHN
Assay type: biochemical
Description: The compounds provided herein are evaluated for biological activity as inhibitors of PTP-1B using, for example, a pNPP assay can be used to screen compounds for tyrosine phosphatase inhibitory activity as described in the Examples.
A 5× stock of pNPP (p-nitrophenol phosphate) substrate is prepared as 50 mM pNPP in assay buffer. Various tyrosine phosphatase solutions can be prepared as follows: • PTP-1B (purified, 1 mg/mL) as a 1:250 dilution (to a final concentration of 4:g/mL); • TC-PTP (NEB, 1000 units in 100:L) as a 1:50 dilution (to a final concentration of 2U/10:L (4:g/mL)); • CD45 (Calbiochem, 20:g, 400 units in 100:L) as a 1:50 dilution (to a final concentration of 0.8U/10:L (4:g/mL)); • LAR (NEB, 1000 units in 200:L) as a 1:75 dilution (to a final concentration of 0.7U/10:L (4:g/mL)); and • PTP-β (UBI, #14-350, 10,000 units, 40:g/571:L) as a 1:17.5 dilution (to a final concentration of 10U/10:L (4:g/mL));
The compound to be tested is prepared as 1:16.7 and 1:50 dilutions from stock in a total volume of […] DMSO to give final concentrations of 626 and 200:M. The reaction mixtures are prepared in a 96-well microtiter plate (on ice) as 55:L assay buffer, 5:L of the diluted compound (to a final concentration of 31.3 and 10:M), 20:L of the pNPP substrate solution (to a final concentration of 10 mM) and 20:L PTPase in assay buffer. The reactants are mixed well, the plate placed in a water bath at 30° C. and incubated for 10 minutes. The reaction is then terminated by adding 100:L of 2M K2CO3 per well, and the absorbance is measured at 405 nm by conventional means.
Unless otherwise indicated, this assay was used to determine activity for the selected compounds whose activity is provided in Table 1.

IC50 [nM] | Structure (SMILES)
2500 to 25000 | O=P(O)(O)C(F)(F)c1ccc(CN(Cc2ccc(C(F)(F)P(=O)(O)O)cc2)S(=O)(=O)c2cccc(Cl)c2Cl)cc1 [Compound 91, {[4-({(2,3-Dichloro-benzenesulfonyl)-[4-(difluoro-phosphono-methyl)-benzyl]-amino}-methyl)-phenyl]-difluoro-methyl}-phosphonic acid]
2500 to 25000 | COC(=O)c1ccccc1S(=O)(=O)N(Cc1ccc(C(F)(F)P(=O)(O)O)cc1)Cc1ccc(C(F)(F)P(=O)(O)O)cc1 [Compound 92, 2-{Bis-[4-(difluoro-phosphono-methyl)-benzyl]-sulfamoyl}-benzoic acid methyl ester]
250 to 499 | O=P(O)(O)C(F)(F)c1ccc(CN(Cc2ccc(C(F)(F)P(=O)(O)O)cc2)S(=O)(=O)c2ccccc2-c2ccccc2)cc1 [Compound 93, {[4-({(Biphenyl-2-sulfonyl)-[4-(difluoro-phosphono-methyl)-benzyl]-amino}-methyl)-phenyl]-difluoro-methyl}-phosphonic acid]
> 25000 | O=C(O)c1ccc(CN(Cc2ccc(Cl)c(Cl)c2)S(=O)(=O)c2ccccc2Cl)cc1Br [Compound 94, 2-Bromo-4-{[(2-chloro-benzenesulfonyl)-(3,4-dichloro-benzyl)-amino]-methyl}-benzoic acid]
> 25000 | O=C(NS(=O)(=O)C(F)(F)F)c1ccc(CN(Cc2ccc(Cl)c(Cl)c2)S(=O)(=O)c2ccccc2Cl)cc1Br [Compound 95, N-(3-Bromo-4-trifluoromethanesulfonylaminocarbonyl-benzyl)-2-chloro-N-(3,4-dichloro-benzyl)-benzenesulfonamide]
250 to 499 | N#Cc1ccccc1S(=O)(=O)N(Cc1ccc(Cl)c(Cl)c1)Cc1ccc(C(F)(F)P(=O)(O)O)c(Br)c1 [Compound 97, [(2-Bromo-4-{[(3,4-dichloro-benzyl)-(2-cyanobenzenesulfonyl)-amino]-methyl}-phenyl)-difluoro-methyl]-phosphonic acid]
250 to 499 | O=P(O)(O)C(F)(F)c1ccc(CN(Cc2ccc(Cl)c(Cl)c2)S(=O)(=O)c2ccccc2OC(F)(F)F)cc1Br [Compound 98, [(2-Bromo-4-{[(3,4-dichloro-benzyl)-(2-trifluoromethoxy-benzenesulfonyl)-amino]-methyl}-phenyl)-difluoro-methyl]-phosphonic acid]
< 99 | O=P(O)(O)C(F)(F)c1ccc(CN(Cc2ccc(C(F)(F)P(=O)(O)O)c(Br)c2)S(=O)(=O)c2ccc3ccccc3c2)cc1Br [Compound 99, [(2-Bromo-4-{[[3-bromo-4-(difluoro-phosphono-methyl)-benzyl]-(naphthalene-2-sulfonyl)-amino]-methyl}-phenyl)-difluoro-methyl]-phosphonic acid]
250 to 499 | O=P(O)(O)C(F)(F)c1ccc(CN(Cc2ccc(Cl)c(Cl)c2)S(=O)(=O)c2ccccn2)cc1Br [Compound 100, [(2-Bromo-4-{[(3,4-dichloro-benzyl)-(pyridine-2-sulfonyl)-amino]-methyl}-phenyl)-difluoro-methyl]-phosphonic acid]
100 to 249 | COc1ccccc1S(=O)(=O)N(Cc1ccc(Cl)c(Cl)c1)Cc1ccc(C(F)(F)P(=O)(O)O)c(Br)c1 [Compound 101, [(2-Bromo-4-{[(3,4-dichloro-benzyl)-(2-methoxy-benzenesulfonyl)-amino]-methyl}-phenyl)-difluoro-methyl]-phosphonic acid]
100 to 249 | CS(=O)(=O)c1ccc(CN(Cc2ccc(C(F)(F)P(=O)(O)O)c(Br)c2)S(=O)(=O)c2ccccc2Cl)cc1 [Compound 102, [(2-Bromo-4-{[(2-chloro-benzenesulfonyl)-(4-methanesulfonyl-benzyl)-amino]-methyl}-phenyl)-difluoro-methyl]-phosphonic acid]
100 to 249 | N#Cc1ccc(CN(Cc2ccc(C(F)(F)P(=O)(O)O)c(Br)c2)S(=O)(=O)c2ccccc2Cl)cc1 [Compound 103, [(2-Bromo-4-{[(4-cyano-benzyl)-(2-chlorobenzenesulfonyl)-amino]-methyl}-phenyl)-difluoro-methyl]-phosphonic acid]
100 to 249 | COC(=O)c1ccc(CN(Cc2ccc(C(F)(F)P(=O)(O)O)c(Br)c2)S(=O)(=O)c2ccccc2Cl)cc1 [Compound 104, 4-{[[3-Bromo-4-(difluoro-phosphono-methyl)-benzyl]-(2-chloro-benzenesulfonyl)-amino]-methyl}-benzoic acid methyl ester]
100 to 249 | COc1ccccc1S(=O)(=O)N(Cc1ccc(C#N)cc1)Cc1ccc(C(F)(F)P(=O)(O)O)c(Br)c1 [Compound 105, [(2-Bromo-4-{[(4-cyano-benzyl)-(2-methoxybenzenesulfonyl)-amino]-methyl}-phenyl)-difluoro-methyl]-phosphonic acid]
> 25000 | CCNc1ccc(S(=O)(=O)C(F)(F)F)cc1NC(=O)c1ccc(C)c(S(=O)(=O)N2CCCCC2)c1 [Compound 106, N-(2-Ethylamino-5-trifluoromethanesulfonyl-phenyl)-4-methyl-3-(piperidine-1-sulfonyl)-benzamide]
< 99 | O=C(O)c1ccc(CN(Cc2ccc(C(F)(F)P(=O)(O)O)c(Br)c2)S(=O)(=O)c2ccccc2Cl)cc1 [Compound 107, 4-{[[3-Bromo-4-(difluoro-phosphono-methyl)-benzyl]-(2-chloro-benzenesulfonyl)-amino]-methyl}-benzoic acid]
250 to 499 | COc1ccccc1S(=O)(=O)N(Cc1ccc(S(C)(=O)=O)cc1)Cc1ccc(C(F)(F)P(=O)(O)O)c(Br)c1 [Compound 108, [(2-Bromo-4-{[(4-methanesulfonyl-benzyl)-(2-methoxy-benzenesulfonyl)-amino]-methyl}-phenyl)-difluoro-methyl]-phosphonic acid]
250 to 499 | O=P(O)(O)C(F)(F)c1ccc(CN(Cc2ccc(Cl)c(Cl)c2)S(=O)(=O)c2ccc(Oc3ccccc3)cc2)cc1Br [Compound 109, [(2-Bromo-4-{[(3,4-dichloro-benzyl)-(4-phenoxy-benzenesulfonyl)-amino]-methyl}-phenyl)-difluoro-methyl]-phosphonic acid]
> 25000 | COc1ccccc1S(=O)(=O)N(Cc1ccc(-c2nn[nH]n2)cc1)Cc1ccc(-c2nn[nH]n2)cc1 [Compound 110, 2-Methoxy-N,N-bis-[4-(2H-tetrazol-5-yl)-benzyl]-benzenesulfonamide]
> 25000 | COc1ccc(S(=O)(=O)N(Cc2ccc(C(=O)C(=O)O)cc2)Cc2ccc(S(C)(=O)=O)cc2)c(OC)c1 [Compound 111, (4-{[(2,4-Dimethoxy-benzenesulfonyl)-(4-methanesulfonyl-benzyl)-amino]-methyl}-phenyl)-oxo-acetic acid]
> 25000 | COc1ccccc1S(=O)(=O)N(Cc1ccc(C#N)cc1)Cc1ccc(N(S(=O)(=O)C(F)(F)F)S(=O)(=O)C(F)(F)F)cc1 [Compound 112, N-(4-[bis(N-trifluoro-methanesulfonyl)amino]benzyl)-N-(4-cyanobenzyl)-(2-methoxy)benzenesulfonamide]
> 25000 | COc1ccc(OC)c(S(=O)(=O)N(Cc2ccc(C(=O)C(=O)O)cc2)Cc2ccc(S(C)(=O)=O)cc2)c1 [Compound 113, (4-{[(2,5-Dimethoxy-benzenesulfonyl)-(4-methanesulfonyl-benzyl)-amino]-methyl}-phenyl)-oxo-acetic acid]
100 to 249 | COc1ccccc1S(=O)(=O)N(Cc1ccc(C(F)(F)P(=O)(O)O)c(Br)c1)c1ccc(S(C)(=O)=O)cc1 [Compound 114, [(2-Bromo-4-{[(4-methanesulfonyl-phenyl)-(2-methoxy-benzenesulfonyl)-amino]-methyl}-phenyl)-difluoro-methyl]-phosphonic acid]
> 25000 | COc1ccccc1S(=O)(=O)N(Cc1ccc(-c2nnn[nH]2)cc1)Cc1ccc(S(C)(=O)=O)cc1 [Compound 115, N-(4-Methanesulfonyl-benzyl)-2-methoxy-N-[4-(1H-tetrazol-5-yl)-benzyl]-benzenesulfonamide]
> 25000 | COc1ccccc1S(=O)(=O)N(Cc1ccc(C(=O)O)cc1)Cc1ccc(-c2nnn[nH]2)cc1 [Compound 116, N-(4-[hydroxycarbonyl]-benzyl)-2-methoxy-N-[4-(1H-tetrazol-5-yl)-benzyl]-benzenesulfonamide]
